Reference: ChEMBL document CHEMBL1817545, “Synthesis and molecular modeling of 1H-pyrrolopyrimidine-2,4-dione derivatives as ligands for the α1-adrenoceptors” (Bioorg Med Chem, 2011)

Assays:
[1] = biological target: T1, Adrenergic receptor alpha-1 (Rattus norvegicus, UniProt P15823+P23944+P43140); test: Displacement of [3H]prazosin from alpha1-ARs in CRL:CD(SD)BR-COBS rat brain cortex after 30 mins by liquid scintillation spectrometry
T1 sequence (P15823 whole entry): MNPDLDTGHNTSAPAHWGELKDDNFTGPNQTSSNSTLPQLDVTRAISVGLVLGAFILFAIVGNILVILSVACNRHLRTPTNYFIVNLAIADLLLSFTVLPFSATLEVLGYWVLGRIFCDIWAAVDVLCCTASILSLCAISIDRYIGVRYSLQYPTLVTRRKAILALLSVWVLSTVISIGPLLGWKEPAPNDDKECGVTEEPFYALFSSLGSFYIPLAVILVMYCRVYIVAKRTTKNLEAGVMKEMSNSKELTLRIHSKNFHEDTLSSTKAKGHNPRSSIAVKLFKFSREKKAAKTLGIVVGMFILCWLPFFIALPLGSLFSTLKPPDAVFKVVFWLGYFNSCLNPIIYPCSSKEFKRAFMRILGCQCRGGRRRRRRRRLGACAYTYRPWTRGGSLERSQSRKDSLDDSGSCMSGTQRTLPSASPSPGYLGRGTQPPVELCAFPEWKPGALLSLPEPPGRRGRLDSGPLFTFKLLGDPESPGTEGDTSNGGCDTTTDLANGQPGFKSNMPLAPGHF
T1 sequence (P23944 whole entry): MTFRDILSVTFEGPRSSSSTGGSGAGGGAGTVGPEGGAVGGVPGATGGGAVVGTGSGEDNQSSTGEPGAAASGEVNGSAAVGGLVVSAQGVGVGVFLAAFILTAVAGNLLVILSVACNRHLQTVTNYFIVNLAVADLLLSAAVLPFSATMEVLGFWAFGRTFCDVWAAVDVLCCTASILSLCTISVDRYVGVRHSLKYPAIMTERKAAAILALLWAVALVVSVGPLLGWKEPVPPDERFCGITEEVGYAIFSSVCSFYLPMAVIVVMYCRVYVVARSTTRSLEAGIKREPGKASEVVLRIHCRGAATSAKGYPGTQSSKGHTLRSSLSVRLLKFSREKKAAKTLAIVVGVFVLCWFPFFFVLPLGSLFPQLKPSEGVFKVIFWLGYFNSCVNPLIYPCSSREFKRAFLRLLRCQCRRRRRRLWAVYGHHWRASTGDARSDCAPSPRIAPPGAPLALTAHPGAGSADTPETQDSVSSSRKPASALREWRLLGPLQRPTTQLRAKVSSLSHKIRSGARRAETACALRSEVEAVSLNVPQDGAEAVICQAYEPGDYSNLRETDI
T1 sequence (P43140 whole entry): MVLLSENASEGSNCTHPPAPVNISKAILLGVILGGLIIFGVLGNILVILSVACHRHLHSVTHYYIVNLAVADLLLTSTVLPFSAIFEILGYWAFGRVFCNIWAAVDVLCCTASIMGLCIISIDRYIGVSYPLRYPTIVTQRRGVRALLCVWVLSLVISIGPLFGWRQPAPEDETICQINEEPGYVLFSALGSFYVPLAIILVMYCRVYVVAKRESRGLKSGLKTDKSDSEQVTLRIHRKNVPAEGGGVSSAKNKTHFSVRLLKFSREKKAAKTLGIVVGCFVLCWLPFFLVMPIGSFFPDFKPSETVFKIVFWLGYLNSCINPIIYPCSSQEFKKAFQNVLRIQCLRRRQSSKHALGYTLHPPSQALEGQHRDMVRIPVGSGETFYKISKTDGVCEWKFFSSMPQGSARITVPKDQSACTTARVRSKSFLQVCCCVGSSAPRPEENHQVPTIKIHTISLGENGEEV

[2] = biological target: T2, 5-hydroxytryptamine receptor 1A (Rattus norvegicus, UniProt P19327); test: Displacement of [3H]-8-OH-DPAT from 5HT1A in CRL:CD(SD)BR-COBS rat brain hippocampus after 30 mins by liquid scintillation spectrometry; type: tissue-based
T2 sequence (P19327 whole entry): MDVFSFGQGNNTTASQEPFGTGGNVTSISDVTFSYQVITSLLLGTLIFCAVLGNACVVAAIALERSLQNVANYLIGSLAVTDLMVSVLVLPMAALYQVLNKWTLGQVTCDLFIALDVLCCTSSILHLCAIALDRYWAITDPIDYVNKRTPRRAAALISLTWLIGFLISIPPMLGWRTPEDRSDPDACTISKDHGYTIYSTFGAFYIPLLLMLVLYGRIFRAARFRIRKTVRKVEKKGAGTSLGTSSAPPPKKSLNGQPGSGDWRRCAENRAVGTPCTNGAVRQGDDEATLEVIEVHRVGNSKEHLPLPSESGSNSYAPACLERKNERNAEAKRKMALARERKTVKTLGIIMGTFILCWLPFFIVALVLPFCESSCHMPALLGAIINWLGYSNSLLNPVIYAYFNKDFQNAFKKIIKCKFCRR

Rattus norvegicus = species: Rattus norvegicus; test: Ratio of Ki for CRL:CD(SD)BR-COBS rat brain hippocampus 5HT1A to Ki for CRL:CD(SD)BR-COBS rat brain cortex alpha1-AR; type: tissue-based

Ki [1] | Ki [2] | Ratio Ki (Rattus norvegicus) | SMILES
54.3 nM | 3680 nM | 67.8 | COc1ccccc1N1CCN(CCn2c(=O)[nH]c3[nH]c(-c4ccc(-c5ccccc5)cc4)cc3c2=O)CC1
3.36 nM | 32.6 nM | 9.7 | COc1ccccc1N1CCN(CCn2c(=O)[nH]c3c(-c4ccc(Cl)cc4)c[nH]c3c2=O)CC1
1.69 nM | 46.7 nM | 27.7 | COc1ccccc1N1CCN(CCn2c(=O)[nH]c3cc(C(C)(C)C)[nH]c3c2=O)CC1
3.38 nM | 28.9 nM | 8.54 | COc1ccccc1N1CCN(CCn2c(=O)[nH]c3cc(-c4ccco4)[nH]c3c2=O)CC1
– | – | > 1000 | COc1ccccc1N1CCN(CCn2c(=O)[nH]c3cc(-c4ccc(Cl)cc4)[nH]c3c2=O)CC1
1.14 nM | 81.5 nM | 71.5 | O=c1[nH]c2c(-c3ccccc3Cl)c[nH]c2c(=O)n1CCN1CCN(c2ccccc2Cl)CC1
4.08 nM | 401 nM | 98.4 | COc1ccccc1N1CCN(CCn2c(=O)[nH]c3[nH]c(-c4ccc(Cl)cc4)cc3c2=O)CC1
43.71 nM | 17.1 nM | 0.39 | COc1ccccc1N1CCN(CCn2c(=O)[nH]c3[nH]c(-c4ccc(Oc5ccccc5)cc4)cc3c2=O)CC1
4.82 nM | 466 nM | 96.7 | COc1ccccc1N1CCN(CCn2c(=O)[nH]c3[nH]c(-c4ccccc4)c(-c4ccccc4)c3c2=O)CC1
2.08 nM | 13.4 nM | 6.44 | COc1ccccc1N1CCN(CCn2c(=O)[nH]c3c(-c4ccccc4)c[nH]c3c2=O)CC1
1.14 nM | 43.1 nM | 37.8 | O=c1[nH]c2c(-c3ccccc3)c[nH]c2c(=O)n1CCN1CCN(c2ccccc2Cl)CC1

The next lines start with the molecule.

SMILES | Ki [1] | Ki [2] | Ratio Ki (Rattus norvegicus)
O=c1[nH]c2[nH]c(-c3ccc(OCc4ccccc4)cc3)cc2c(=O)n1CCN1CCN(c2ccccc2Cl)CC1 | 70.91 nM | > 10000 nM | > 141
COc1ccccc1N1CCN(CCn2c(=O)[nH]c3[nH]c(-c4ccc(OCc5ccccc5)cc4)cc3c2=O)CC1 | 10.31 nM | 784 nM | 76
COc1ccccc1N1CCN(CCn2c(=O)c3cc(-c4ccccc4)[nH]c3n(Cc3ccccc3)c2=O)CC1 | 24.5 nM | 198 nM | 8.08
COc1ccc(-c2cc3c(=O)n(CCN4CCN(c5ccccc5OC)CC4)c(=O)n(Cc4ccccc4OC)c3[nH]2)cc1 | 15.86 nM | 184 nM | 11.6
O=c1[nH]c2cc(-c3ccc(Cl)cc3)[nH]c2c(=O)n1CCN1CCN(c2ccccc2Cl)CC1 | – | – | > 800
CC(C)(C)c1cc2[nH]c(=O)n(CCN3CCN(c4ccccc4Cl)CC3)c(=O)c2[nH]1 | 1.39 nM | 65.1 nM | 46.9
O=c1[nH]c2[nH]c(-c3ccc(Oc4ccccc4)cc3)cc2c(=O)n1CCN1CCN(c2ccccc2Cl)CC1 | 125 nM | 4720 nM | 37.8
Cc1ccc(-c2c[nH]c3c(=O)n(CCN4CCN(c5ccccc5Cl)CC4)c(=O)[nH]c23)cc1 | 4.96 nM | > 10000 nM | > 2000
O=c1[nH]c2c(-c3ccc(Cl)cc3)c[nH]c2c(=O)n1CCN1CCN(c2ccccc2Cl)CC1 | 2.71 nM | > 10000 nM | > 3500
O=c1[nH]c2[nH]c(-c3ccc(-c4ccccc4)cc3)cc2c(=O)n1CCN1CCN(c2ccccc2Cl)CC1 | 183 nM | > 10000 nM | > 54.6
O=c1[nH]c2[nH]c(-c3ccc(Cl)cc3)cc2c(=O)n1CCN1CCN(c2ccccc2Cl)CC1 | 2.64 nM | 1510 nM | > 500
COc1ccccc1N1CCN(CCn2c(=O)[nH]c3[nH]c(-c4ccc(OCCOc5ccccc5)cc4)cc3c2=O)CC1 | 53.63 nM | > 10000 nM | > 186
O=c1[nH]c2[nH]c(-c3ccccc3)c(-c3ccccc3)c2c(=O)n1CCN1CCN(c2ccccc2Cl)CC1 | 11.9 nM | 1540 nM | 129
O=c1c2cc(-c3ccccc3)[nH]c2n(Cc2ccccc2)c(=O)n1CCN1CCN(c2ccccc2Cl)CC1 | 35.41 nM | 1020 nM | 28.8
COc1ccc(-c2cc3c(=O)n(CCN4CCN(c5ccccc5Cl)CC4)c(=O)n(Cc4ccccc4OC)c3[nH]2)cc1 | 89.2 nM | 4670 nM | 52.3
O=c1[nH]c2cc(-c3ccco3)[nH]c2c(=O)n1CCN1CCN(c2ccccc2Cl)CC1 | 14.17 nM | 220 nM | 15.5
O=c1[nH]c2[nH]c(-c3ccc(OCCOc4ccccc4)cc3)cc2c(=O)n1CCN1CCN(c2ccccc2Cl)CC1 | 126 nM | > 10000 nM | > 79
